Consider 38 compounds from PubChem BioAssay AID743276 (Broad Institute, 2014).

Structures are written as SMILES. Inconclusive results are not listed. Calls of active or inactive are those of the source.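 The calls were made as follows: active = compounds whose fitted cell loss curve, in every repeat run, reached half effect below twice the top dose; inconclusive = repeat runs disagree, or runs show weak or poorly fitted drops; inactive = every repeat run called inactive.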

One experiment deals with CAPAN-1 cell number, Hoechst imaging, 14 days. Description: reduction of CAPAN-1 cell number – imaging, dry powder, set 3, dose response (AID 743276).
Conditions: not given
By AC50 is commonly meant the concentration at which the activity in the assay is half-maximal. On to `CCCCN(CC)CCNC(=O)CCC(=O)Nc1ccc2nc(N3CCN(C)CC3)cc(C)c2c1`, for which the AC50 was 25.1 µM.

On to `Cc1ccc2nc(-c3ccc(NC(=S)NC4CC(C)(C)NC(C)(C)C4)cc3)sc2c1`, for which the half-maximal activity concentration (AC50) is 12.1 µM.

For the compound `Cc1ccc2sc(N(CCCN(C)C)C(=O)c3ccc(S(=O)(=O)N(C)Cc4ccccc4)cc3)nc2c1C`, the AC50 is 9.25 µM.

As to `CC1(C)CC(NC(=O)c2ccc(Cl)c(S(=O)(=O)N(Cc3ccccc3)c3ccccc3)c2)CC(C)(C)N1`, the AC50 is 12.8 µM.

In the case of `CCN1CCc2c(sc(NC(=O)c3ccc(OC)cc3OC)c2C(N)=O)C1`, the AC50 was 32.7 µM.

As for `CN(C)CCCN(C(=O)c1nc2ccccc2s1)c1nc2ccc(F)cc2s1`, the half-maximal activity concentration (AC50) was 17 µM.

As to `c1ccc(-c2cc(N3CCC(N4CCCC4)CC3)n3nccc3n2)cc1`, the AC50 was 46.1 µM.

As to `CCCCN(CC)CCNC(=O)c1cc2c(-c3ccc(Cl)cc3)nn(C)c2s1`, the concentration at half-maximal activity (AC50) is 3.57 µM.

Take `CCN(CC)CCNC(=S)Nc1ccc2nc(N3CCN(CC)CC3)cc(C)c2c1`: the AC50 is 13.8 µM.

In the case of `CCCN(CCC)CCCNC(=S)Nc1ccc2nc(N3CCN(CC)CC3)cc(C)c2c1`, the AC50 was 22.8 µM.

As for `COc1ccccc1Nc1nc(NCCO)c2ccccc2n1`, the AC50 was 24.6 µM.

For the compound `CCN1CCN(C(=S)Nc2ccc3nc(N4CCN(C)CC4)cc(C)c3c2)CC1`, the AC50 was 10.7 µM.

As to `Cn1nc(-c2ccc(Cl)cc2)c2cc(C(=O)NCCCN3CCCC3)sc21`, the AC50 is 3.72 µM.

On to `C=C1Nc2cc(-c3ccc(Cl)cc3)nn2C(NCCN(C)C)=C1C`, for which the AC50 was 8.39 µM.

As for `COc1ccc2oc(C(=O)c3ccccc3)c(NC(=O)CN3CCN(C)CC3)c2c1`, the AC50 was 13.5 µM.

For the compound `CN1CCN(CCCNC(=O)c2cc3c(-c4ccc(Cl)cc4)nn(C)c3s2)CC1`, the concentration at half-maximal activity (AC50) is 10.5 µM.

For the compound `Cc1ccc(C(=O)c2oc3ccc(Cl)cc3c2NC(=O)CN2CCN(C)CC2)cc1`, the concentration at half-maximal activity (AC50) was 9.78 µM.

For `COc1ccc(-c2oc3ncnc(NCCCN4CCOCC4)c3c2-c2ccc(OC)cc2)cc1`, the concentration at half-maximal activity (AC50) is 43.8 µM.

In the case of `CCCN1CCN(CCCNC(=S)Nc2ccc3nc(N4CCN(CC)CC4)cc(C)c3c2)CC1`, the AC50 is 24.7 µM.

`OCCNc1nc(Nc2ccccc2F)nc2ccccc12`: the half-maximal activity concentration (AC50) was 32 µM.

As for `Cc1cc(N2CCN(C)CC2)nc2ccc(NC(=S)NCCCN3CCN(C)CC3)cc12`, the AC50 was 43.7 µM.

Turning to `CN(C)CCCN(C(=O)c1ccc(C(=O)c2ccccc2)cc1)c1nc2cc3c(cc2s1)OCO3`, the half-maximal activity concentration (AC50) was 12.7 µM.

On to `Cc1ccc2sc(N(CCCN(C)C)C(=O)c3ccc(S(=O)(=O)N(C)C4CCCCC4)cc3)nc2c1C`, for which the AC50 was 24 µM.

Take `CCCCN(CC)CCCNC(=S)Nc1ccc2nc(N3CCN(C)CC3)cc(C)c2c1`: the half-maximal activity concentration (AC50) was 37.8 µM.

For `CCN1CCN(c2cc(C)c3cc(NC(=O)c4ccccn4)ccc3n2)CC1`, the AC50 was 35.6 µM.

`CN(C)CCCNC(=S)NCC(c1ccc(Cl)cc1Cl)c1c[nH]c2ccccc12` (stereo not drawn): the AC50 is 27.4 µM.

With `Cc1cc(C)c2sc(N(CCCN(C)C)C(=O)CN3C(=O)c4ccccc4C3=O)nc2c1`, the AC50 is 22.2 µM.

Take `Cc1cc(C)c2c(c1)c1nnc(SCCN3CCCCC3)nc1n2C`: the AC50 was 42.3 µM.

Consider `Cc1c(C(=O)Nc2ccc(S(=O)(=O)N(C)C3CCN(C)CC3)cc2)oc2c(Cl)cccc12`, for which the AC50 is 11.2 µM.

Regarding `Cc1cc(C)n(-c2nc(NCCN(C)C)c3c4c(sc3n2)CCCC4)n1`, the concentration at half-maximal activity (AC50) was 15.4 µM.

As for `CCN1CCN(CCCNC(=O)C2CCN(c3nnc(-n4c(C)ccc4C)s3)CC2)CC1`, the AC50 is 20.5 µM.

Consider `CCN(CC)CCN(C(=O)C1=COCCO1)c1nc2c(OC)ccc(OC)c2s1`, for which the concentration at half-maximal activity (AC50) is 47.5 µM.

With `COc1ccc(C2NCCc3c2[nH]c2ccccc32)cc1COc1ccc(F)cc1` (stereo not drawn), the concentration at half-maximal activity (AC50) was 18.7 µM.

On to `COc1ccccc1Nc1nc(NCCCO)c2ccccc2n1`, for which the concentration at half-maximal activity (AC50) is 31.1 µM.

System in a further experiment: not listed separately
The experiment is described as above. The note with it: CAPAN-1 cell number, Hoechst imaging, 14 days; at 50 µM (top of the series).
On to `O=c1c2c(-c3ccccc3)csc2nc2c3ccccc3c(NCCN3CCOCC3)nn12`, for which the activity change, negative = fewer cells is -15.7% (inactive).

Consider `CN(C)CCCNC(=S)N(CCN(C)C)Cc1cc2cc3c(cc2[nH]c1=O)OCCO3`, for which the activity change, negative = fewer cells is -2.03% (inactive).

With `CCN(CC)CCCN(Cc1cc2cc3c(cc2[nH]c1=O)OCO3)C(=S)NCCCN(C)C`, the activity change, negative = fewer cells is -1.27% (inactive).

As for `CCCNc1nc(Cl)nc(NCc2cccnc2)n1`, the activity change, negative = fewer cells is -7.79% (inactive).
